Experimental findings from paper PMC7946002, “The development of novel cytochrome P450 2J2 (CYP2J2) inhibitor and the underlying interaction between inhibitor and CYP2J2” (Journal of Enzyme Inhibition and Medicinal Chemistry, 2021) are described below.

Each structure is given as a SMILES string.

Series [1] has as its target T1, Human recombinant CYP2J2 (Homo sapiens, UniProt P51589).
T1 construct: purchased Cypex (Scotland, UK)
T1 sequence (P51589 1-502): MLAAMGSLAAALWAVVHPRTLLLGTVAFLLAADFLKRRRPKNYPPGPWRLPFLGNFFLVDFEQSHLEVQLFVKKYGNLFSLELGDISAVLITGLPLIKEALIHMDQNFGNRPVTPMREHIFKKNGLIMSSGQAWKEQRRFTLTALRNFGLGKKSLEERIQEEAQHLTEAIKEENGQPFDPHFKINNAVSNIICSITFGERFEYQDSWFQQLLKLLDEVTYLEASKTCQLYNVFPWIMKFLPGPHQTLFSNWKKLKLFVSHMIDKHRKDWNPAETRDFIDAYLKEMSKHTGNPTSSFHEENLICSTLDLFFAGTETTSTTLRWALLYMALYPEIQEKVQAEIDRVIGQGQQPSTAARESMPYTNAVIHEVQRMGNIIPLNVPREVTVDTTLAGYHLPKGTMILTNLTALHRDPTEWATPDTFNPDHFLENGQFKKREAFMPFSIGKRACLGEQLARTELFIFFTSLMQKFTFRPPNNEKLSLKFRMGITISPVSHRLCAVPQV
The series is described as follows: Inhibition activity of Piperine derivatives towards CYP2J2 (BnXPI probe, IC50). The series is classed as biochemical. Particulars: for IC50: CYP2J2 3.75 pmol/mL, BnXPI 4 μM, 30 min, triplicate, mean ± SD, read-out: Inhibitory activity (IC50) CYP2J2; for increase of inhibition activity compared with Piperine: IC50 versus Piperine. The procedure:
In our previous study, BnXPI was developed to be the first selective fluorescent probe for CYP2J2[24]. Thus, with the help of the fast and sensitive advantages of fluorescence technology, the potential inhibitory effect of 108 herbal medicines (Table S1) towards CYP2J2 was screened. In brief, in the standard incubation system (100 mM phosphoric acid buffer, pH 7.4, NADPH generate system, BnXPI and extract of herbal medicines), BnXPI was set at 4 μM, and the concentration of CYP2J2 was 0.01 nmol/mL, after the pre-incubation of BnXPI and herbal medicines (final concentration was 20 μg/mL) for 3 min, NADP^+ was added to initiate the reaction. After additional 30 min (mins) incubation, 100 μL ice acetonitrile was added to terminate the reaction and followed a 20000 g centrifugation at 4 °C, the supernatant was collected and assay on a Synergy H1 Microplate Reader (Bio-Tek). The blank solvent replaces the extract of herbal medicines was set as the control group. According to the screening method mentioned above, various concentration of Piperine derivatives were added into our standard incubation system and incubated with CYP2J2, probe BnXPI for 30 min. The concentration of CYP2J2 was set at 3.75 pmol/mL, the concentration of BnXPI was 4 μM. The control group was added blank solvent instead of the inhibitors.

Series [2] deals with T1, Human recombinant CYP2J2. The series is described as follows: Inhibition kinetic study towards CYP2J2 (Lineweaver-Burk and Dixon plots). Particulars: for Ki: BnXPI 0–8 μM; for inhibition type towards CYP2J2: intersection point in Lineweaver–Burk plot. It is filed as biochemical. How it is done: In order to clarify the inhibition type of compound 9a, 9k, and 9l towards CYP2J2, the inhibition kinetics were also performed. Briefly, the inhibition activity of target compounds towards the metabolism kinetic of BnPXI (0–8 μM) mediated by CYP2J2 was determinated under the different concentrations of inhibitors. At last, Lineweaver–Burk and Dixon plots were used to fit the data as previously described[25]^,[26]. The inhibition kinetic type was evaluated by determining the intersection point in the Lineweaver–Burk plots. […] (1) v=Vmax/1+Km/[S](1+[I]/Ki) (2) v=Vmax/(1+Km/[S])(1+[I]/Ki) (3) v=Vmax/(1+Km/[S]+[I]/Ki) (4) v=Vmax/Km/[S](1+[I]/Ki)+(1+[I]/αKi)

Regarding `O=C(/C=C/C=C/c1ccc2c(c1)OCO2)N1CCCCC1` [9a, (2E,4E)-5-(benzo[d][1,3]dioxol-5-yl)-1-(piperidin-1-yl)penta-2,4-dien-1-one], on Human recombinant CYP2J2 [1], the IC50 was determined as 440 ± 50 nM. In addition, on Human recombinant CYP2J2 [2], the Ki was determined as 500 nM.

Take `O=C(/C=C/C=C/c1ccc2c(c1)OCO2)NC1CC1` [9b, (2E,4E)-5-(benzo[d][1,3]dioxol-5-yl)-N-cyclopropylpenta-2,4-dienamide]: the IC50 at Human recombinant CYP2J2 [1] came to 4720 ± 730 nM.

Take `O=C(/C=C/C=C/c1ccc2c(c1)OCO2)N1CCCC1` [9c, (2E,4E)-5-(benzo[d][1,3]dioxol-5-yl)-1-(pyrrolidin-1-yl)penta-2,4-dien-1-one]: the IC50 at Human recombinant CYP2J2 [1] was 1580 ± 220 nM.

On to `O=C(/C=C/C=C/c1ccc2c(c1)OCO2)NC12CC3CC(CC(C3)C1)C2` [9d, (2E,4E)-N-((3s,5s,7s)-adamantan-1-yl)-5-(benzo[d][1,3]dioxol-5-yl)penta-2,4-dienamide], for which the IC50 on Human recombinant CYP2J2 [1] stood at 9330 ± 1060 nM.

As to `O=C(/C=C/C=C/c1ccc2c(c1)OCO2)N1CCOCC1` [9e, (2E,4E)-5-(benzo[d][1,3]dioxol-5-yl)-1-morpholinopenta-2,4-dien-1-one], the IC50 at Human recombinant CYP2J2 [1] amounted to 12000 ± 1350 nM.

Turning to `C[C@@H]1COCCN1C(=O)/C=C/C=C/c1ccc2c(c1)OCO2` [9f, (2E,4E)-5-(benzo[d][1,3]dioxol-5-yl)-1-((R)-3-methylmorpholino)penta-2,4-dien-1-one], the IC50 on Human recombinant CYP2J2 [1] amounted to 4660 ± 560 nM.

As to `C[C@H]1COCCN1C(=O)/C=C/C=C/c1ccc2c(c1)OCO2` [9g, (2E,4E)-5-(benzo[d][1,3]dioxol-5-yl)-1-((S)-3-methylmorpholino)penta-2,4-dien-1-one], at Human recombinant CYP2J2 [1], the IC50 is 2250 ± 560 nM.

On to `O=C(/C=C/C=C/c1ccc2c(c1)OCO2)N1CCSCC1` [9h, (2E,4E)-5-(benzo[d][1,3]dioxol-5-yl)-1-thiomorpholinopenta-2,4-dien-1-one], for which the IC50 at Human recombinant CYP2J2 [1] was 750 ± 80 nM.

`O=C(/C=C/C=C/c1ccc2c(c1)OCO2)N1CCS(=O)(=O)CC1` [9i, (2E,4E)-5-(benzo[d][1,3]dioxol-5-yl)-1–(1,1-dioxidothiomorpholino)penta-2,4-dien-1-one]: on Human recombinant CYP2J2 [1], the IC50 is 1240 ± 450 nM.

For the compound `CN(C)CCNC(=O)/C=C/C=C/c1ccc2c(c1)OCO2` [9j, (2E,4E)-5-(benzo[d][1,3]dioxol-5-yl)-N-(2-(dimethylamino)ethyl)penta-2,4-dienamide], on Human recombinant CYP2J2 [1], the IC50 was 11800 ± 1470 nM.

Take `CC(C)CN(CC(C)C)C(=O)/C=C/C=C/c1ccc2c(c1)OCO2` [9k, (2E,4E)-5-(benzo[d][1,3]dioxol-5-yl)-N,N-diisobutylpenta-2,4-dienamide]: on Human recombinant CYP2J2 [1], the IC50 came out at 40 ± 8 nM and the “increase of inhibition activity compared with Piperine” value is listed as “about 10 folds”. Also, at Human recombinant CYP2J2 [2], the Ki was determined as 110 nM and the “inhibition type towards CYP2J2” value is listed as “competitive inhibition model”.

Take `O=C(/C=C/C=C/c1ccc2c(c1)OCO2)NCc1ccc(F)cc1` [9l, (2E,4E)-5-(benzo[d][1,3]dioxol-5-yl)-N-(4-fluorobenzyl)penta-2,4-dienamide]: on Human recombinant CYP2J2 [1], the IC50 was determined as 50 ± 5 nM and the “increase of inhibition activity compared with Piperine” value is given as “about 10 folds”. In addition, at Human recombinant CYP2J2 [2], the Ki stood at 74 nM and the “inhibition type towards CYP2J2” value is listed as “competitive inhibition model”.

The IC50 is the midpoint of a concentration-inhibition curve. In general, Ki refers to the equilibrium dissociation constant of an inhibitor or competing ligand from its target.
